Experimental data reported in patent US20260262643A1, “HERBICIDAL BENZOXAZINES” (FMC CORPORATION, priority 2022, published 2026).

Key:
[1] = test system: barnyardgrass; experiment: Test C preemergence; format: in vivo, Echinochloa crusgalli
Method in brief: (§1)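 Visual injury ratings on a 0–100 scale (100 = complete control) were made against untreated controls 10 days after treatment in the greenhouse. Compounds, formulated with surfactant in non-phytotoxic solvent, were sprayed on soil preemergence or onto one- to two-leaf plants 2–10 cm tall postemergence.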

[2] = test system: blackgrass; experiment: Test C preemergence; format: in vivo, Alopecurus myosuroides
Method in brief: as §1

[3] = test system: corn; experiment: Test C preemergence; format: in vivo, Zea mays
Method in brief: as §1

[4] = test system: foxtail, giant; experiment: Test C preemergence; format: in vivo, Setaria faberi
Method in brief: as §1

[5] = test system: kochia; experiment: Test C preemergence; format: in vivo, Bassia scoparia
Method in brief: as §1

[6] = test system: oat, wild; experiment: Test C preemergence; format: in vivo, Avena fatua
Method in brief: as §1

[7] = test system: pigweed, palmer; experiment: Test C preemergence; format: in vivo, Amaranthus palmeri
Method in brief: as §1

[8] = test system: ragweed; experiment: Test C preemergence; format: in vivo, Ambrosia artemisiifolia
Method in brief: as §1

[9] = test system: ryegrass, Italian; experiment: Test C preemergence; format: in vivo, Lolium multiflorum
Method in brief: as §1

[10] = test system: soybean; experiment: Test C preemergence; format: in vivo, Glycine max
Method in brief: as §1

[11] = test system: wheat; experiment: Test C preemergence; format: in vivo, Triticum aestivum
Method in brief: as §1

[12] = test system: barnyardgrass; experiment: Test C postemergence; format: in vivo, Echinochloa crusgalli; details: 10 days, 0 to 100 scale (0 no effect, 100 complete control)
Method in brief: as §1

[13] = test system: blackgrass; experiment: Test C postemergence; format: in vivo, Alopecurus myosuroides; details: 10 days, 0 to 100 scale (0 no effect, 100 complete control)
Method in brief: as §1

[14] = test system: corn; experiment: Test C postemergence; format: in vivo, Zea mays; details: 10 days, 0 to 100 scale (0 no effect, 100 complete control)
Method in brief: as §1

[15] = test system: foxtail, giant; experiment: Test C postemergence; format: in vivo, Setaria faberi; details: 10 days, 0 to 100 scale (0 no effect, 100 complete control)
Method in brief: as §1

[16] = test system: kochia; experiment: Test C postemergence; format: in vivo, Bassia scoparia; details: 10 days, 0 to 100 scale (0 no effect, 100 complete control)
Method in brief: as §1

[17] = test system: oat, wild; experiment: Test C postemergence; format: in vivo, Avena fatua; details: 10 days, 0 to 100 scale (0 no effect, 100 complete control)
Method in brief: as §1

[18] = test system: pigweed, palmer; experiment: Test C postemergence; format: in vivo, Amaranthus palmeri; details: 10 days, 0 to 100 scale (0 no effect, 100 complete control)
Method in brief: as §1

[19] = test system: ragweed; experiment: Test C postemergence; format: in vivo, Ambrosia artemisiifolia; details: 10 days, 0 to 100 scale (0 no effect, 100 complete control)
Method in brief: as §1

[20] = test system: ryegrass, Italian; experiment: Test C postemergence; format: in vivo, Lolium multiflorum; details: 10 days, 0 to 100 scale (0 no effect, 100 complete control)
Method in brief: as §1

[21] = test system: soybean; experiment: Test C postemergence; format: in vivo, Glycine max; details: 10 days, 0 to 100 scale (0 no effect, 100 complete control)
Method in brief: as §1

[22] = test system: wheat; experiment: Test C postemergence; format: in vivo, Triticum aestivum; details: 10 days, 0 to 100 scale (0 no effect, 100 complete control)
Method in brief: as §1

[23] = test system: galium; experiment: Test C postemergence; format: in vivo, Galium aparine; details: 10 days, 0 to 100 scale (0 no effect, 100 complete control)
Method in brief: as §1

[24] = test system: horseweed; experiment: Test C postemergence; format: in vivo, Erigeron canadensis; details: 10 days, 0 to 100 scale (0 no effect, 100 complete control)
Method in brief: as §1

[25] = test system: barnyardgrass; experiment: Test D flooded paddy test; format: in vivo, Echinochloa crus-galli; details: 250 g ai/ha, applied to paddy water, visual rating after 13 to 14 days, scale 0 to 100 (0 no effect, 100 complete control)
Method in brief: (§2)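 Seedlings reached the 2-leaf stage, then pots were flooded to 3 cm over the soil surface. Compound was applied into the water, depth was maintained, and plants stayed in the greenhouse 13 to 14 days before visual scoring (0–100) relative to controls.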

[26] = test system: ducksalad; experiment: Test D flooded paddy test; format: in vivo, Heteranthera limosa; details: 250 g ai/ha, applied to paddy water, visual rating after 13 to 14 days, scale 0 to 100 (0 no effect, 100 complete control)
Method in brief: as §2

[27] = test system: rice; experiment: Test D flooded paddy test; format: in vivo, Oryza sativa; details: 250 g ai/ha, applied to paddy water, visual rating after 13 to 14 days, scale 0 to 100 (0 no effect, 100 complete control)
Method in brief: as §2

[28] = test system: sedge, umbrella; experiment: Test D flooded paddy test; format: in vivo, Cyperus difformis; details: 250 g ai/ha, applied to paddy water, visual rating after 13 to 14 days, scale 0 to 100 (0 no effect, 100 complete control)
Method in brief: as §2

[29] = 500 g ai/ha, preemergence, 0 to 100 scale (0 no effect, 100 complete control)
[30] = Preemergence, 125 g ai/ha, 0 to 100 scale, 0 no effect, 100 complete control

CC(C)c1ncn(-c2cc(C(=O)N3CC(C(F)(F)F)Oc4c(Cl)cccc43)ccn2)n1 (single isomer, unassigned) [Compound 330]
Barnyardgrass plant response rating [1, 29]: 100
Plant response rating, Barnyardgrass [1, 30]: 70
Blackgrass plant response rating [2, 29]: 90
Plant response rating, Blackgrass [2, 30]: 70
Corn plant response rating [3, 29]: 60
Plant response rating, Corn [3, 30]: 10
Foxtail, Giant plant response rating [4, 29]: 100
Plant response rating, Foxtail, Giant [4, 30]: 100
Kochia plant response rating [5, 29]: 90
Plant response rating, Kochia [5, 30]: 30
Oat, Wild plant response rating [6, 29]: 60
Plant response rating, Oat, Wild [6, 30]: 30
Pigweed, Palmer plant response rating [7, 29]: 100
Plant response rating, Pigweed, Palmer [7, 30]: 100
Ragweed plant response rating [8, 29]: 50
Plant response rating, Ragweed [8, 30]: 0
Ryegrass, Italian plant response rating [9, 29]: 100
Plant response rating, Ryegrass, Italian [9, 30]: 100
Soybean plant response rating [10, 29]: 80
Plant response rating, Soybean [10, 30]: 40
Wheat plant response rating [11, 29]: 30
Plant response rating, Wheat [11, 30]: 20
Plant response rating, Barnyardgrass ([12]; 500 g ai/ha, postemergence): 70
Plant response rating, Barnyardgrass ([12]; Postemergence, 125 g ai/ha): 50
Plant response rating, Blackgrass ([13]; 500 g ai/ha, postemergence): 90
Plant response rating, Blackgrass ([13]; Postemergence, 125 g ai/ha): 40
Plant response rating, Corn ([14]; 500 g ai/ha, postemergence): 90
Plant response rating, Corn ([14]; Postemergence, 125 g ai/ha): 70
Plant response rating, Foxtail, Giant ([15]; 500 g ai/ha, postemergence): 90
Plant response rating, Foxtail, Giant ([15]; Postemergence, 125 g ai/ha): 50
Plant response rating, Kochia ([16]; 500 g ai/ha, postemergence): 100
Plant response rating, Kochia ([16]; Postemergence, 125 g ai/ha): 80
Plant response rating, Oat, Wild ([17]; 500 g ai/ha, postemergence): 70
Plant response rating, Oat, Wild ([17]; Postemergence, 125 g ai/ha): 30
Plant response rating, Pigweed, Palmer ([18]; 500 g ai/ha, postemergence): 100
Plant response rating, Pigweed, Palmer ([18]; Postemergence, 125 g ai/ha): 70
Plant response rating, Ragweed ([19]; 500 g ai/ha, postemergence): 40
Plant response rating, Ragweed ([19]; Postemergence, 125 g ai/ha): 30
Plant response rating, Ryegrass, Italian ([20]; 500 g ai/ha, postemergence): 90
Plant response rating, Ryegrass, Italian ([20]; Postemergence, 125 g ai/ha): 40
Plant response rating, Soybean ([21]; 500 g ai/ha, postemergence): 100
Plant response rating, Soybean ([21]; Postemergence, 125 g ai/ha): 100
Plant response rating, Wheat ([22]; 500 g ai/ha, postemergence): 30
Plant response rating, Wheat ([22]; Postemergence, 125 g ai/ha): 20
Plant response rating, Galium ([23]; 500 g ai/ha, postemergence): 100
Plant response rating, Galium ([23]; Postemergence, 125 g ai/ha): 100
Plant response rating, Horseweed ([24]; 500 g ai/ha, postemergence): 20
Plant response rating, Horseweed ([24]; Postemergence, 125 g ai/ha): 0
Plant response rating, Barnyardgrass (Flood) [25]: 0
Plant response rating, Ducksalad (Flood) [26]: 0
Plant response rating, Rice (Flood) [27]: 0
Plant response rating, Sedge, Umbrella (Flood) [28]: 0
